Structures are written as SMILES.

What all share (assay): KinomeScan profiling
Holding throughout (type): binding

The target in one experiment is T1, DMPK (Homo sapiens, UniProt Q09013).
T1 sequence (Q09013 1-629): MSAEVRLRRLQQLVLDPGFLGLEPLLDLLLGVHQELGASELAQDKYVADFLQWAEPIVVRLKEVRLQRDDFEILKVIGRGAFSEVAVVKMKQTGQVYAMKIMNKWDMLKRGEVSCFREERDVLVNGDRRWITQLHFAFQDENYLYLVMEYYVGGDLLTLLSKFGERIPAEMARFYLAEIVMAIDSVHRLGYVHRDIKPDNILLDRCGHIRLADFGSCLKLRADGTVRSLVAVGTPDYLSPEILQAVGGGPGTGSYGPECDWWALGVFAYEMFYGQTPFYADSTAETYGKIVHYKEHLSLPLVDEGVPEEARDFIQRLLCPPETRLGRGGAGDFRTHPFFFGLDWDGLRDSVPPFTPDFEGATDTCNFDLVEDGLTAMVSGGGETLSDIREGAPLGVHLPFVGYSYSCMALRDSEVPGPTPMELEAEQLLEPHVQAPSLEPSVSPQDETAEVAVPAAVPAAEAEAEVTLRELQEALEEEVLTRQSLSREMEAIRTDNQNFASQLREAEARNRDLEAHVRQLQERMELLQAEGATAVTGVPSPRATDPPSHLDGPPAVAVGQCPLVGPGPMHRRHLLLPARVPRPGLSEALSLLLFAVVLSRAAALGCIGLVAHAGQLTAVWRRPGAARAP
The conditions noted are these: read-out: % control. The gist of the method:
(§1)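 Percent-of-control values derive from RLU, calculated as (test − positive)/(negative − positive) × 100, where DMSO defines 100% and a positive control compound defines 0%. Each compound was tested at 1 μM in the 468-kinase panel; sub-35% readings indicate activity.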

The target in another experiment is T2, TNNI3K (Homo sapiens, UniProt Q59H18).
T2 sequence (Q59H18 1-835): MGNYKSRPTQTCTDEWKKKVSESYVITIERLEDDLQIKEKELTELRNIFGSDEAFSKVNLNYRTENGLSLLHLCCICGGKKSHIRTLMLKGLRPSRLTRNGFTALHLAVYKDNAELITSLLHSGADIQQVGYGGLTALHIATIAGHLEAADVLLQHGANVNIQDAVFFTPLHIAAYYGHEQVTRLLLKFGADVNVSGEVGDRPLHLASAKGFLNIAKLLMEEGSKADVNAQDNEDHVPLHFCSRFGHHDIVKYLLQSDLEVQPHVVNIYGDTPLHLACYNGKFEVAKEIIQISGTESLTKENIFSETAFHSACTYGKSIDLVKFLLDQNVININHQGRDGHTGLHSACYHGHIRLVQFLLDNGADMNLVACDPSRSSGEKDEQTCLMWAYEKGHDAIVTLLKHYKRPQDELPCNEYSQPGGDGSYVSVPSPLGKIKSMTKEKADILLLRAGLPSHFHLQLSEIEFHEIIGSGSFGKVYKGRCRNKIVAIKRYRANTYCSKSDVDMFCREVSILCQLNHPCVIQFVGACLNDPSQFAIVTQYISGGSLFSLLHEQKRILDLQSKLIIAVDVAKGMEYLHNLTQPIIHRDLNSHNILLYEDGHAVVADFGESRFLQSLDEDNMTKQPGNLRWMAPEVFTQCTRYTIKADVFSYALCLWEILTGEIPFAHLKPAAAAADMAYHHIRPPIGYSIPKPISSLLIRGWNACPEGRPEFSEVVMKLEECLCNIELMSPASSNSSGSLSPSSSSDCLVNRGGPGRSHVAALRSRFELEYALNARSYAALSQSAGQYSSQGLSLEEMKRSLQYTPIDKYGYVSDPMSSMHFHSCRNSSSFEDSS
The conditions noted are these: read-out: % control. The gist of the method: as §1

In another experiment the target is LTK (Homo sapiens, UniProt P29376). The conditions noted are these: read-out: % control. The gist of the method:
as §1

Another experiment addresses T3, KIT(V559D, T670I) (Homo sapiens, UniProt P10721, T670I/V559D).
T3 construct: purchased KinomeScan®
The following applies: read-out: % control. The gist of the method: as §1

The target of the next experiment is T4, KIT(D816V) (Homo sapiens, UniProt P10721, D816V).
T4 construct: purchased KinomeScan®
T4 sequence (P10721 26-976 D816V): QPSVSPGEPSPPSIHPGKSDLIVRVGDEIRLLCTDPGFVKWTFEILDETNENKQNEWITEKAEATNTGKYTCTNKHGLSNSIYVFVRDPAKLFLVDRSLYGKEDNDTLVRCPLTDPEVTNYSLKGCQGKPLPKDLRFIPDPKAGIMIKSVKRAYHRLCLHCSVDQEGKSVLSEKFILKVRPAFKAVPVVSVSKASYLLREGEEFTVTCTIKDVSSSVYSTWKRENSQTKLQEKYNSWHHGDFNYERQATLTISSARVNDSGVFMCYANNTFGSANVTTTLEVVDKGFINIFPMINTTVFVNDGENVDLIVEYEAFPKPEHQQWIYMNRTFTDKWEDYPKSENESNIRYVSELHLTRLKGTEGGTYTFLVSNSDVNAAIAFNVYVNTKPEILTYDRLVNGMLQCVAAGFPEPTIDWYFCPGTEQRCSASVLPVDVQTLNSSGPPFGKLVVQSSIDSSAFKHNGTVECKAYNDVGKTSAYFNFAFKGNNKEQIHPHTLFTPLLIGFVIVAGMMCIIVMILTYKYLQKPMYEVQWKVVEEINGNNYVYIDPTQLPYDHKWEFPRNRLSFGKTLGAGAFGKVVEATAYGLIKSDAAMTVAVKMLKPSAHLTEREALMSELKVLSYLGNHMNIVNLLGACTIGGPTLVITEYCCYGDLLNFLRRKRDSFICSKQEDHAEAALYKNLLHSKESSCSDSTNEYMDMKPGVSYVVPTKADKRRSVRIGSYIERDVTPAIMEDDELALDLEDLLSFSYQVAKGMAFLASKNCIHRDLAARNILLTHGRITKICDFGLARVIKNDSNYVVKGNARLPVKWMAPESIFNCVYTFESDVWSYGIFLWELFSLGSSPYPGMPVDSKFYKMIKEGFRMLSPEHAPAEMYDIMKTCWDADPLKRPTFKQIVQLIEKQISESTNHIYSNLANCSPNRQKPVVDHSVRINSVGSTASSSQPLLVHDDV
The following applies: read-out: % control. The gist of the method: as §1

The next experiment addresses T5, SRPK2 (Homo sapiens, UniProt P78362).
T5 construct: purchased KinomeScan® (panel service)
The conditions noted are these: SRPK2, 1 μM; read-out: % control. The gist of the method: as §1

The target of a further experiment is T6, KIT(L576P) (Homo sapiens, UniProt P10721, L576P).
T6 construct: purchased KinomeScan®
T6 sequence (P10721 26-976 L576P): as the sequence (P10721 26-976 D816V) above, with L551P, V791D counted along it
The following applies: read-out: % control. Put shortly: as §1

Another experiment addresses TESK1 (Homo sapiens, UniProt Q15569). The conditions noted are these: TESK1, 1 μM; read-out: % control. The gist of the method: as §1
A further experiment has as its target T7, KIT(V559D) (Homo sapiens, UniProt P10721, V559D).
T7 construct: purchased KinomeScan®
The following applies: read-out: % control. Put shortly: as §1

For another experiment, the target named is CSNK1A1 (Homo sapiens, UniProt P48729). The conditions noted are these: CSNK1A1, 1 μM; read-out: % control. Put shortly: as §1
CSNK1A1, sequence (P48729 whole entry): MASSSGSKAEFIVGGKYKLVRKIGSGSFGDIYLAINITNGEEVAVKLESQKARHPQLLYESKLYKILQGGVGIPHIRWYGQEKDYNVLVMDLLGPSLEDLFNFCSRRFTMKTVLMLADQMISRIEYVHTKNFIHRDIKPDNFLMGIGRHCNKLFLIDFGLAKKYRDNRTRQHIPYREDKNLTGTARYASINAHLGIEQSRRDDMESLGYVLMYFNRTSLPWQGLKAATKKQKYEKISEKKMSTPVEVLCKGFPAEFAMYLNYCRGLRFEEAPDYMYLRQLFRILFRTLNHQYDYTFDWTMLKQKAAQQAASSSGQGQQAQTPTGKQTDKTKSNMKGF
A further experiment concerns the target RAF1 (Homo sapiens, UniProt P04049). The conditions noted are these: RAF1, 1 μM; read-out: % control. The gist of the method:
as §1

The target in the next experiment is T8, PIK4CB (Homo sapiens, UniProt Q9UBF8).
T8 construct: purchased KinomeScan® (panel service)
T8 sequence (Q9UBF8 whole entry): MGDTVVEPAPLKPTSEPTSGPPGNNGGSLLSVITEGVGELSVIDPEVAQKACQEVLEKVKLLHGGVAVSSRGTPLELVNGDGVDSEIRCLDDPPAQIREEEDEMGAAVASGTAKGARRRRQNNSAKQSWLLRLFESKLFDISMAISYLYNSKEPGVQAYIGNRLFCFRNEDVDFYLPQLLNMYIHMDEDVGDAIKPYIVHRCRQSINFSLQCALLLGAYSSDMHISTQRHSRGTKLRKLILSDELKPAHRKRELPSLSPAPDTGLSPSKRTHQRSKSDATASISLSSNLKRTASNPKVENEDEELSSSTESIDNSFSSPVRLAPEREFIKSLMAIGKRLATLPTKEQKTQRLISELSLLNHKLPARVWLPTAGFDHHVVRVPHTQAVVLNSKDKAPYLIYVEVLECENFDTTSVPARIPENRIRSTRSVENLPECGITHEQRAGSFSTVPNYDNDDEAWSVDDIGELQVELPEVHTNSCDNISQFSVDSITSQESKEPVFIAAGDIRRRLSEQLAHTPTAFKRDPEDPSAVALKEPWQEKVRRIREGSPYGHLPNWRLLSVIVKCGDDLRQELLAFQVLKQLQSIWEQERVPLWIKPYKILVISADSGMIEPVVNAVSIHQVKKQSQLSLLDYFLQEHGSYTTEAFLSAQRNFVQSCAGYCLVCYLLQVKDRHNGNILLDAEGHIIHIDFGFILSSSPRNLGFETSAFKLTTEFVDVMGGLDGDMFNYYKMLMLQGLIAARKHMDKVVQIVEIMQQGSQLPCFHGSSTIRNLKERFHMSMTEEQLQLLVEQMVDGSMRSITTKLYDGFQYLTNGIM
The conditions noted are these: read-out: % control. Put shortly: as §1

The target of a further experiment is PHKG1 (Homo sapiens, UniProt Q16816). The conditions noted are these: PHKG1, 1 μM; read-out: % control. The gist of the method: as §1
PHKG1, sequence (Q16816 whole entry): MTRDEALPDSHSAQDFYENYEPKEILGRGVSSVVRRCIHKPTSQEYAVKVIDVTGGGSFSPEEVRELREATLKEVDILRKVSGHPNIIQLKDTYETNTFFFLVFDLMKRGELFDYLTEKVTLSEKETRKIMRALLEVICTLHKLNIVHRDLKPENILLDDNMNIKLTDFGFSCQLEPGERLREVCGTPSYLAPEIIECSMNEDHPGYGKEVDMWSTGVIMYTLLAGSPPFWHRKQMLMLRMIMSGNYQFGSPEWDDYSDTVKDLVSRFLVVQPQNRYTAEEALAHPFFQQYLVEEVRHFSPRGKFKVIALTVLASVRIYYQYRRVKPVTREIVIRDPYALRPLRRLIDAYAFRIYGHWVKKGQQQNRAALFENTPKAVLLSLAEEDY
The next experiment concerns the target PFTK1 (Homo sapiens, UniProt O94921). The following applies: PFTK1, 1 μM; read-out: % control. Put shortly: as §1
For experiment [1], the target named is T9, ABL1(M351T)-phosphorylated (Homo sapiens, UniProt P00519, M351T).
T9 construct: purchased KinomeScan®
The conditions noted are these: read-out: % control. The gist of the method: as §1

In experiment [2] the target is T10, ABL1(E255K)-phosphorylated (Homo sapiens, UniProt P00519, E255K).
T10 construct: purchased KinomeScan®
The conditions noted are these: read-out: % control. The gist of the method:
as §1

In a further experiment the target is FAK (Homo sapiens, UniProt Q05397). The conditions noted are these: read-out: % control. The gist of the method: as §1
FAK, sequence (Q05397 whole entry): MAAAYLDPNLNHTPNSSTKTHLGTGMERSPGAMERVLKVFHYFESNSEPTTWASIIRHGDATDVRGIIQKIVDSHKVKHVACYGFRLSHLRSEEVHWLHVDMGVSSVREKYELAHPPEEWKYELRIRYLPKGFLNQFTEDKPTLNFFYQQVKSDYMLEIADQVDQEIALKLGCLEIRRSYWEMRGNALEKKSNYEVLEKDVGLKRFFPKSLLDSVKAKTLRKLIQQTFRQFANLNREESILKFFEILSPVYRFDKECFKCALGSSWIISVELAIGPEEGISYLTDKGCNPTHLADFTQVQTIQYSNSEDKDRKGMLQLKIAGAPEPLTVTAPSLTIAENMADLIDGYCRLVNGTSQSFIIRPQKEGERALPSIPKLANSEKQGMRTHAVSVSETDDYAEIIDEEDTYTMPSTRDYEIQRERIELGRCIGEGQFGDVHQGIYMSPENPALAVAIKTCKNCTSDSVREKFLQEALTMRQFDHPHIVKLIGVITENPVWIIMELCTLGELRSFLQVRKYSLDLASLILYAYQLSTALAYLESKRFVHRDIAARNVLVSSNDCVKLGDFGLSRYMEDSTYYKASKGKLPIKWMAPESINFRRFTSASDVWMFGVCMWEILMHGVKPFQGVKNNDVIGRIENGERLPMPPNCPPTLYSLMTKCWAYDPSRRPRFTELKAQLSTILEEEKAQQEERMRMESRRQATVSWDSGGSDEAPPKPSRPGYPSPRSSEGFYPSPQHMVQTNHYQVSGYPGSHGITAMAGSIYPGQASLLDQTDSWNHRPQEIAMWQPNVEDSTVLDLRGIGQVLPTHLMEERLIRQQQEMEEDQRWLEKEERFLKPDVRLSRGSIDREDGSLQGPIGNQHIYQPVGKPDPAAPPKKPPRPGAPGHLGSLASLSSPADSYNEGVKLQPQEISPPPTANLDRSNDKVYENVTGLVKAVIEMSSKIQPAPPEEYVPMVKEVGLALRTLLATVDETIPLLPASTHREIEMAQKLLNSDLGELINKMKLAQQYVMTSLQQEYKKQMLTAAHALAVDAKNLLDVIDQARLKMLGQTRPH

PFTK1, sequence (O94921 whole entry): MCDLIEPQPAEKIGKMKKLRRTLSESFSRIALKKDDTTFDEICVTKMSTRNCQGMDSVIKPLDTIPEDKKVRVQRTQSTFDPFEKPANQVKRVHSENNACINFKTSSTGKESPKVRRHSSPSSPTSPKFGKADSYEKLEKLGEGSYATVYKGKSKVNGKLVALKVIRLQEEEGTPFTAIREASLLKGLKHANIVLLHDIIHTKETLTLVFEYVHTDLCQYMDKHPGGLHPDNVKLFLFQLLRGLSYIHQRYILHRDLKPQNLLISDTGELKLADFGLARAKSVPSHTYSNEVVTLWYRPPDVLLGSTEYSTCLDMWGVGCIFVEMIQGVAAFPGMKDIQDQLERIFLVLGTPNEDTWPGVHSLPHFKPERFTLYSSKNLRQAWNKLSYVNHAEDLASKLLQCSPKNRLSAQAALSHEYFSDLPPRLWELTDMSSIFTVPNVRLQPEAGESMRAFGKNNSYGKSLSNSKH
TESK1, sequence (Q15569 whole entry): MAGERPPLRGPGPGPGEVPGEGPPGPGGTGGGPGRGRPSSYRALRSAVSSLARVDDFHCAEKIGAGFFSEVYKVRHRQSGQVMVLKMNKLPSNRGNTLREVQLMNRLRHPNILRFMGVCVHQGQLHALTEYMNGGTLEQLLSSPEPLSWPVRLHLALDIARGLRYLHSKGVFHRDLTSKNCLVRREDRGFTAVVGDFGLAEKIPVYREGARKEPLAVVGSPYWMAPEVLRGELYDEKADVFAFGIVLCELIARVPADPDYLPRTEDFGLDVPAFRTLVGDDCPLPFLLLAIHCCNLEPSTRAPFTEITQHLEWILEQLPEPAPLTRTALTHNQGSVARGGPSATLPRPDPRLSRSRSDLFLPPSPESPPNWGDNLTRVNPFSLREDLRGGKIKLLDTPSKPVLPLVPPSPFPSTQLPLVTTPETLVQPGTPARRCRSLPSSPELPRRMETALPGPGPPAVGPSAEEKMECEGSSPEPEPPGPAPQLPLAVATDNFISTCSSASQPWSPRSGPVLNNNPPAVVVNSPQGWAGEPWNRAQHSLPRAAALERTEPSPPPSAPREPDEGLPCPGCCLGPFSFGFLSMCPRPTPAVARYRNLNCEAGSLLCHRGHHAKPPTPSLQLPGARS
T3 sequence (P10721 26-976 V559D/T670I): as the sequence (P10721 26-976 D816V) above, with V534D, T645I, V791D counted along it
T7 sequence (P10721 26-976 V559D): as the sequence (P10721 26-976 D816V) above, with V534D, V791D counted along it

Consider `CNc1c(-c2ccc(C(=O)N3CCC(N4CCOCC4)CC3)cc2)cnc2[nH]cc(Cl)c12` [Compound 96, (4-(3-chloro-4-(methylamino)-1H-pyrrolo[2,3-b]pyridin-5-yl)phenyl)(4-morpholinopiperidin-1-yl)methanone], for which the remaining binding at 1 µM turned out to be 36% at DMPK; 74% on TNNI3K; 62% at LTK; 27% at KIT(V559D, T670I); 86% at KIT(D816V); 16% on SRPK2. In addition, the remaining binding at 1 µM at KIT(L576P) was 19%; at TESK1 it was 74%; at KIT(V559D), 4.5%; at CSNK1A1, 100%; on RAF1 it was 100%; at PIK4CB it was 58%. For the same molecule, the remaining binding at 1 µM at PHKG1 turned out to be 86%; at PFTK1, 100%; in experiment [1] it was 71%; in [2], 92%; at FAK it was 65%.
In the case of `O=C(c1ccc(-c2cnc3[nH]cc(Cl)c3c2NC2CCCC2)cc1)N1CCC(N2CCOCC2)CC1` [Compound 101, (4-(3-chloro-4-(cyclopentylamino)-1H-pyrrolo[2,3-b]pyridin-5-yl)phenyl)(4-morpholinopiperidin-1-yl)methanone], the remaining binding at 1 µM on DMPK is 52%; at TNNI3K, 100%; at LTK, 72%; on KIT(V559D, T670I), 71%; on KIT(D816V), 95%; at SRPK2, 60%. Also, the remaining binding at 1 µM at KIT(L576P) came out at 46%; at TESK1 it was 99%; on KIT(V559D), 50%; at CSNK1A1, 89%; at RAF1 it was 91%; at PIK4CB, 100%. Also, the remaining binding at 1 µM on PHKG1 is 87%; at PFTK1, 100%; in experiment [1], 93%; in experiment [2] it was 100%; at FAK, 71%.
Consider `CNc1c(-c2cnn([C@H]3CCN(C(C)=O)C[C@@H]3F)c2)cnc2[nH]cc(Cl)c12` [Compound 77, 1-((3S,4S)-4-(4-(3-chloro-4-(methylamino)-1H-pyrrolo[2,3-b]pyridin-5-yl)-1H-pyrazol-1-yl)-3-fluoropiperidin-1-yl)ethan-1-one], for which the remaining binding at 1 µM on DMPK was 36%; at TNNI3K, 65%; at LTK, 75%; at KIT(V559D, T670I), 9.7%; at KIT(D816V), 46%; at SRPK2, 12%. For the same molecule, the remaining binding at 1 µM at KIT(L576P) is 10%; on TESK1, 89%; at KIT(V559D) it was 2.8%; at CSNK1A1, 96%; on RAF1, 91%; on PIK4CB, 59%. The remaining binding at 1 µM came to 100% at PHKG1; 100% on PFTK1; 75% in [1]; 73% in [2]; 90% at FAK.

For the origin of these results see patent US12275731B2, “Azaindole inhibitors of wild-type and mutant forms of LRRK2” (DANA-FARBER CANCER INSTITUTE, INC., priority 2018, dated 2025).
